# Results: ChEMBL document CHEMBL1687830, “Evaluation of ceftazidime and NXL104 in two murine models of infection due to KPC-producing Klebsiella pneumoniae” (2011)
# Experiments:
# Format in all cases: functional
# Klebsiella pneumoniae [1] = experiment: Antimicrobial activity against carbapenemases KPC-producing Klebsiella pneumoniae VA-361 infected in sc dosed CD-1 mouse in presence of 1 ug/ml NXL104 beta-lactamase inhibitor
# Klebsiella pneumoniae [2] = experiment: Antimicrobial activity against carbapenemases KPC-producing Klebsiella pneumoniae VA-361 infected in sc dosed CD-1 mouse in presence of 2 ug/ml NXL104 beta-lactamase inhibitor
# Klebsiella pneumoniae [3] = experiment: Antimicrobial activity against carbapenemases KPC-producing Klebsiella pneumoniae VA-361 infected in sc dosed CD-1 mouse in presence of 4 ug/ml NXL104 beta-lactamase inhibitor
# Klebsiella pneumoniae [4] = experiment: Antimicrobial activity against carbapenemases KPC-producing Klebsiella pneumoniae VA-361 infected in sc dosed CD-1 mouse in presence of 4 ug/ml cavulanate beta-lactamase inhibitor
# Klebsiella pneumoniae [5] = experiment: Antimicrobial activity against carbapenemases KPC-producing Klebsiella pneumoniae VA-361 infected in sc dosed CD-1 mouse
# Klebsiella pneumoniae [6] = experiment: Antimicrobial activity against carbapenemases KPC-producing Klebsiella pneumoniae VA-406 infected in sc dosed CD-1 mouse in presence of 1 ug/ml NXL104 beta-lactamase inhibitor
# Klebsiella pneumoniae [7] = experiment: Antimicrobial activity against carbapenemases KPC-producing Klebsiella pneumoniae VA-406 infected in sc dosed CD-1 mouse in presence of 2 ug/ml NXL104 beta-lactamase inhibitor
# Klebsiella pneumoniae [8] = experiment: Antimicrobial activity against carbapenemases KPC-producing Klebsiella pneumoniae VA-406 infected in sc dosed CD-1 mouse in presence of 4 ug/ml NXL104 beta-lactamase inhibitor
# Klebsiella pneumoniae [9] = experiment: Antimicrobial activity against carbapenemases KPC-producing Klebsiella pneumoniae VA-406 infected in sc dosed CD-1 mouse in presence of 4 ug/ml Tazobactam beta-lactamase inhibitor
# Klebsiella pneumoniae [10] = experiment: Antimicrobial activity against carbapenemases KPC-producing Klebsiella pneumoniae VA-406 infected in sc dosed CD-1 mouse in presence of 4 ug/ml cavulanate beta-lactamase inhibitor
# Klebsiella pneumoniae [11] = experiment: Antimicrobial activity against carbapenemases KPC-producing Klebsiella pneumoniae VA-406 infected in sc dosed CD-1 mouse
# Klebsiella pneumoniae [12] = experiment: Antimicrobial activity against carbapenemases KPC-producing Klebsiella pneumoniae VA-361 infected in sc dosed CD-1 mouse in presence of 4 ug/ml Tazobactam beta-lactamase inhibitor
# Klebsiella pneumoniae [13] = experiment: Antimicrobial activity against Klebsiella pneumoniae ATCC 13883 infected in sc dosed CD-1 mouse septicemia infection model by acute lethal septicemia analysis; settings: ATCC 13883, sc
# Klebsiella pneumoniae [14] = experiment: Antimicrobial activity against carbapenemases KPC-producing Klebsiella pneumoniae VA-361 infected in sc dosed CD-1 mouse septicemia infection model by acute lethal septicemia analysis; settings: VA-361, sc
# Klebsiella pneumoniae [15] = experiment: Antimicrobial activity against carbapenemases KPC-producing Klebsiella pneumoniae VA-406 infected in sc dosed CD-1 mouse septicemia infection model by acute lethal septicemia analysis; settings: VA-406, sc
# Klebsiella pneumoniae [16] = experiment: Antimicrobial activity against Klebsiella pneumoniae ATCC 13883 infected in sc dosed CD-1 mouse septicemia infection model at 2:1 compound to NXL104 beta-lactamase inhibitor ratio by acute lethal septicemia analysis; settings: ATCC 13883, sc
# Klebsiella pneumoniae [17] = experiment: Antimicrobial activity against carbapenemases KPC-producing Klebsiella pneumoniae VA-361 infected in sc dosed CD-1 mouse septicemia infection model at 2:1 compound to NXL104 beta-lactamase inhibitor ratio by acute lethal septicemia analysis; settings: VA-361, sc
# Klebsiella pneumoniae [18] = experiment: Antimicrobial activity against carbapenemases KPC-producing Klebsiella pneumoniae VA-406 infected in sc dosed CD-1 mouse septicemia infection model at 2:1 compound to NXL104 beta-lactamase inhibitor ratio by acute lethal septicemia analysis; settings: VA-406, sc
# Klebsiella pneumoniae [19] = experiment: Antimicrobial activity against Klebsiella pneumoniae ATCC 13883 infected in sc dosed CD-1 mouse septicemia infection model at 4:1 compound to NXL104 beta-lactamase inhibitor ratio by acute lethal septicemia analysis; settings: ATCC 13883, sc
# Klebsiella pneumoniae [20] = experiment: Antimicrobial activity against carbapenemases KPC-producing Klebsiella pneumoniae VA-361 infected in sc dosed CD-1 mouse septicemia infection model at 4:1 compound to NXL104 beta-lactamase inhibitor ratio by acute lethal septicemia analysis; settings: VA-361, sc
# Klebsiella pneumoniae [21] = experiment: Antimicrobial activity against carbapenemases KPC-producing Klebsiella pneumoniae VA-406 infected in sc dosed CD-1 mouse septicemia infection model at 4:1 compound to NXL104 beta-lactamase inhibitor ratio by acute lethal septicemia analysis; settings: VA-406, sc
# Klebsiella pneumoniae [22] = experiment: Antimicrobial activity against Klebsiella pneumoniae ATCC 13883 infected in sc dosed CD-1 mouse septicemia infection model at 8:1 compound to NXL104 beta-lactamase inhibitor ratio by acute lethal septicemia analysis; settings: ATCC 13883, sc
# Klebsiella pneumoniae [23] = experiment: Antimicrobial activity against carbapenemases KPC-producing Klebsiella pneumoniae VA-361 infected in sc dosed CD-1 mouse septicemia infection model at 8:1 compound to NXL104 beta-lactamase inhibitor ratio by acute lethal septicemia analysis; settings: VA-361, sc
# Klebsiella pneumoniae [24] = experiment: Antimicrobial activity against carbapenemases KPC-producing Klebsiella pneumoniae VA-406 infected in sc dosed CD-1 mouse septicemia infection model at 8:1 compound to NXL104 beta-lactamase inhibitor ratio by acute lethal septicemia analysis; settings: VA-406, sc
# Klebsiella pneumoniae [25] = experiment: Antimicrobial activity against carbapenemases KPC-producing Klebsiella pneumoniae VA-361 infected in sc dosed CD-1 mouse septicemia infection model at 16:1 compound to NXL104 beta-lactamase inhibitor ratio by acute lethal septicemia analysis; settings: VA-361, sc
# Klebsiella pneumoniae [26] = experiment: Antimicrobial activity against carbapenemases KPC-producing Klebsiella pneumoniae VA-406 infected in sc dosed CD-1 mouse septicemia infection model at 16:1 compound to NXL104 beta-lactamase inhibitor ratio by acute lethal septicemia analysis; settings: VA-406, sc
# Klebsiella pneumoniae [27] = experiment: (§1) Antimicrobial activity against carbapenemases KPC-producing Klebsiella pneumoniae VA-406 infected in CD-1 mouse thigh infection model assessed as change in log10 CFU reduction per thigh treated 1.5 hr post infection at >=1024:256 mg/kg, sc compound to NXL104 beta-lactamase inhibitor ratio after 24 hrs by acute lethal septicemia analysis (reference value: 8.67 log10CFU/thigh)
# Klebsiella pneumoniae [28] = experiment: as §1, with “VA-361” for “VA-406”, “>=512:128” for “>=1024:256”, “8.93” for “8.67”
# Klebsiella pneumoniae [29] = experiment: as §1, with “>=512:128” for “>=1024:256”
# Klebsiella pneumoniae [30] = experiment: as §1, with “VA-361” for “VA-406”, “>=256:64” for “>=1024:256”, “8.93” for “8.67”
# Klebsiella pneumoniae [31] = experiment: as §1, with “>=256:64” for “>=1024:256”
# Klebsiella pneumoniae [32] = experiment: as §1, with “VA-361” for “VA-406”, “>=128:32” for “>=1024:256”, “8.93” for “8.67”
# Klebsiella pneumoniae [33] = experiment: as §1, with “>=128:32” for “>=1024:256”
# Klebsiella pneumoniae [34] = experiment: as §1, with “VA-361” for “VA-406”, “>=64:16” for “>=1024:256”, “8.93” for “8.67”
# Klebsiella pneumoniae [35] = experiment: as §1, with “>=64:16” for “>=1024:256”, “analysis” for “analysis (reference value: 8.67 log10CFU/thigh)”
# Klebsiella pneumoniae [36] = experiment: as §1, with “VA-361” for “VA-406”, “>=32:8” for “>=1024:256”, “8.93” for “8.67”
# Klebsiella pneumoniae [37] = experiment: as §1, with “>=32:8” for “>=1024:256”
# Klebsiella pneumoniae [38] = experiment: as §1, with “>=16:4” for “>=1024:256”
smiles,measurement,setting,value
CO/N=C(\C(=O)N[C@@H]1C(=O)N2C(C(=O)[O-])=C(C[N+]3(C)CCCC3)CS[C@H]12)c1csc(N)n1 [CEFEPIME],MIC,Klebsiella pneumoniae [1],0.5 µg/mL
same,MIC,Klebsiella pneumoniae [2],0.25 µg/mL
same,MIC,Klebsiella pneumoniae [3],≤ 0.06 µg/mL
same,MIC,Klebsiella pneumoniae [4],8 µg/mL
same,MIC,Klebsiella pneumoniae [5],32 µg/mL
same,MIC,Klebsiella pneumoniae [6],0.5 µg/mL
same,MIC,Klebsiella pneumoniae [7],0.5 µg/mL
same,MIC,Klebsiella pneumoniae [8],0.125 µg/mL
same,MIC,Klebsiella pneumoniae [9],128 µg/mL
same,MIC,Klebsiella pneumoniae [10],128 µg/mL
same,MIC,Klebsiella pneumoniae [11],256 µg/mL
CO/N=C(\C(=O)N[C@@H]1C(=O)N2C(C(=O)O)=C(COC(C)=O)CS[C@H]12)c1csc(N)n1 [CEFOTAXIME],MIC,Klebsiella pneumoniae [1],0.5 µg/mL
same,MIC,Klebsiella pneumoniae [2],0.5 µg/mL
same,MIC,Klebsiella pneumoniae [3],0.125 µg/mL
same,MIC,Klebsiella pneumoniae [12],16 µg/mL
same,MIC,Klebsiella pneumoniae [4],16 µg/mL
same,MIC,Klebsiella pneumoniae [5],64 µg/mL
same,MIC,Klebsiella pneumoniae [6],0.5 µg/mL
same,MIC,Klebsiella pneumoniae [7],0.5 µg/mL
same,MIC,Klebsiella pneumoniae [8],0.125 µg/mL
same,MIC,Klebsiella pneumoniae [9],256 µg/mL
same,MIC,Klebsiella pneumoniae [10],256 µg/mL
same,MIC,Klebsiella pneumoniae [11],≥ 512 µg/mL
CC(C)(O/N=C(\C(=O)N[C@@H]1C(=O)N2C(C(=O)[O-])=C(C[n+]3ccccc3)CS[C@H]12)c1csc(N)n1)C(=O)O [CEFTAZIDIME],MIC,Klebsiella pneumoniae [1],8 µg/mL
same,MIC,Klebsiella pneumoniae [2],4 µg/mL
same,MIC,Klebsiella pneumoniae [3],0.25 µg/mL
same,MIC,Klebsiella pneumoniae [12],128 µg/mL
same,MIC,Klebsiella pneumoniae [4],128 µg/mL
same,MIC,Klebsiella pneumoniae [5],256 µg/mL
same,MIC,Klebsiella pneumoniae [6],8 µg/mL
same,MIC,Klebsiella pneumoniae [7],2 µg/mL
same,MIC,Klebsiella pneumoniae [8],≤ 0.06 µg/mL
same,MIC,Klebsiella pneumoniae [9],256 µg/mL
same,MIC,Klebsiella pneumoniae [10],256 µg/mL
same,MIC,Klebsiella pneumoniae [11],≥ 512 µg/mL
same,ED50,Klebsiella pneumoniae [13],1.9 mg/kg
same,ED50,Klebsiella pneumoniae [14],1580 mg/kg
same,ED50,Klebsiella pneumoniae [15],709 mg/kg
same,ED50,Klebsiella pneumoniae [16],1 mg/kg
same,ED50,Klebsiella pneumoniae [17],8.1 mg/kg
same,ED50,Klebsiella pneumoniae [18],3.5 mg/kg
same,ED50,Klebsiella pneumoniae [19],1.1 mg/kg
same,ED50,Klebsiella pneumoniae [20],15.1 mg/kg
same,ED50,Klebsiella pneumoniae [21],3.8 mg/kg
same,ED50,Klebsiella pneumoniae [22],0.62 mg/kg
same,ED50,Klebsiella pneumoniae [23],16.9 mg/kg
same,ED50,Klebsiella pneumoniae [24],7.2 mg/kg
same,ED50,Klebsiella pneumoniae [25],29.5 mg/kg
same,ED50,Klebsiella pneumoniae [26],12.1 mg/kg
same,log10cfu,Klebsiella pneumoniae [27],-1.59
same,log10cfu,Klebsiella pneumoniae [28],-1.47
same,log10cfu,Klebsiella pneumoniae [29],-1.03
same,log10cfu,Klebsiella pneumoniae [30],-0.85
same,log10cfu,Klebsiella pneumoniae [31],-1.02
same,log10cfu,Klebsiella pneumoniae [32],1.88
same,log10cfu,Klebsiella pneumoniae [33],-0.46
same,log10cfu,Klebsiella pneumoniae [34],2.19
same,log10cfu,Klebsiella pneumoniae [35],2.06
same,log10cfu,Klebsiella pneumoniae [36],2.32
same,log10cfu,Klebsiella pneumoniae [37],2.33
same,log10cfu,Klebsiella pneumoniae [38],2.69
